# Test results from patent publication US20250368678A1, “19-NOR-C3,3-DISUBSTITUTED C21-AZACYCLO-S[…] AND METHOD FOR USING SAME” (SHANDONG LUYE PHARMACEUTICAL CO., LTD., priority 2022, published 2025).
# How the values were obtained:
# [1] = target: T1, α1β2γ2 GABA receptors (α1β2γ2-CHO-TRex stable cell strain) (Homo sapiens, UniProt P14867+P47870); test: Whole-cell patch clamp, intrasynaptic functional activity (positive allosteric regulation of GABA-induced current); type: cell-based; settings: patch clamp -60 mV, GABA at EC10-20, α1β2γ2-CHO-TRex cells
# T1 construct: expressed in transfected cells
# T1 sequence (P14867 28-456): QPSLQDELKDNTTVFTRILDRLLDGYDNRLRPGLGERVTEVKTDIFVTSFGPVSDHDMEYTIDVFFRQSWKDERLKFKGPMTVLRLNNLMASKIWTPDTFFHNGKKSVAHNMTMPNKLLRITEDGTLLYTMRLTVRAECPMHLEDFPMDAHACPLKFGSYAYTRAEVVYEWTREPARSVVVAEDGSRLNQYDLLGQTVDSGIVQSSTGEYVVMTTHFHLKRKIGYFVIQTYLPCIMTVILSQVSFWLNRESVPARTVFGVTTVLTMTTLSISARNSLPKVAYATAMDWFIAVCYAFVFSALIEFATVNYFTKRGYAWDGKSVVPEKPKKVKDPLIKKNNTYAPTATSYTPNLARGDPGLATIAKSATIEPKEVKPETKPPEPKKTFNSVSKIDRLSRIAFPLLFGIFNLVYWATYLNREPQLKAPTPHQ
# T1 sequence (P47870 25-512 limits assumed): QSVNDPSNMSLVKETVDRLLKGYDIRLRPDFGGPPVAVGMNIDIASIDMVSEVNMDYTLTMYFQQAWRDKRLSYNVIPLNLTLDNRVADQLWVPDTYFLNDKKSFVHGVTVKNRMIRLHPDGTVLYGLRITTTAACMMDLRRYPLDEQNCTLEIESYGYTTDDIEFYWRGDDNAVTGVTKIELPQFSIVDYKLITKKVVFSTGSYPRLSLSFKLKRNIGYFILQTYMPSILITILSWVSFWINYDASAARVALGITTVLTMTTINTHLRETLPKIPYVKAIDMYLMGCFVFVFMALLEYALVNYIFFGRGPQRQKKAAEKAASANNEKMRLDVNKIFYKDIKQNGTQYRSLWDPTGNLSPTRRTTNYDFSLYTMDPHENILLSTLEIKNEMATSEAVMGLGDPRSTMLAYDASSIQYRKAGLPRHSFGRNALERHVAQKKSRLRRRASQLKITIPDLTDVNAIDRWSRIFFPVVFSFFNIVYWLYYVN
# T1 sequence (P18507 40-475 partner): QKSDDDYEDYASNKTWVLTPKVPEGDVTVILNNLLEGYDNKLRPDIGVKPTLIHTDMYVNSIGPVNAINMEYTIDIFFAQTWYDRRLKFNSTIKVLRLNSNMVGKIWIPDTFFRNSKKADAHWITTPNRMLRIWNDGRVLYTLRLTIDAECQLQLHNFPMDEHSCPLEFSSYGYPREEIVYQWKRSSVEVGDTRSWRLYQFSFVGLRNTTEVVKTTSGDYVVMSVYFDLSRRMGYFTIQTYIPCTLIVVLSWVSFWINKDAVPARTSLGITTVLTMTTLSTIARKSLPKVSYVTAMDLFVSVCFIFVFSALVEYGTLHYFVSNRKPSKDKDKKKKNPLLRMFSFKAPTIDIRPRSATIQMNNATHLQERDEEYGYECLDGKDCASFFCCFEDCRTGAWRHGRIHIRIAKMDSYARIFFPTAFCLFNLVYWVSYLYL
# Method: (§1) The α4β3δ-HEK-FlpIn-TRex stable cell strain was cultured in DMEM+10% FBS complete culture medium, with the selective antibiotics being 10 μg/mL Blasticidin, 100 µg/mL Zeocin, 100 µg/mL Hygromycin, and 0.2 μg/mL Puromycin. The α1β2γ2-CHO-TRex stable cell strain was cultured in DMEM/F12+10% FBS complete culture medium, with the selective antibiotics being 10 μg/mL Blasticidin, 100 μg/mL Zeocin, 300 μg/mL Hygromycin, and […] Puromycin.
# (§2) The day before the patch clamp experiment, cells were seeded onto 12 mm polylysine-coated coverslips and then cultured in 35 mm culture dishes, and tetracycline ([…]) was added to induce the expression of GABA receptors. The extracellular fluid had the following composition (in mM): 140 NaCl, 3 KCl, 1.5 MgCl2, 2 CaCl2, 10 HEPES, and 10 Glucose. After thorough mixing, NaOH was added to adjust the pH to 7.4, and sucrose was added to adjust the osmotic pressure to 300-320 mOsm. The fluid was stored at 4° C. The electrode internal solution had the following composition (in mM): 145 KCl, 1 MgCl2, 5 EGTA, 10 HEPES, and 5 MgATP. After thorough mixing, KOH was added to adjust the pH to 7.3, and sucrose was added to adjust the osmotic pressure to 290-300 mOsm. The solution was filtered through a […] before use.
# (§3) Whole-cell patch clamp recording was mainly employed in this experiment. The membrane potential was clamped at −60 mV, and receptors were activated using GABA at an EC10-20 concentration ([…]). The test compounds were dissolved in 0.1% DMSO, and perfusion was performed for 30 s prior to GABA stimulation. Finally, the positive allosteric regulating effects of the test compounds on α1β2γ2 or α4β3δ were determined.
# (§4) The experimental result for each concentration was expressed as a fold increase in the GABA-induced current caused by the compound. […] At least 5 concentrations are tested to obtain a complete EC50 curve and EC50 values. All experiments were repeated on no less than 3 cells, and data processing was completed using GraphPad prism software. The dose-response curves were fitted using the Hill equation, and the half-maximal activating concentration EC50 and Emax were finally obtained.
# [2] = In vitro liver microsomal stability assay, human; type: in vitro ADME; settings: for Remaining amount % at 60 min: Human liver microsomes 0.5 mg/mL, NADPH; for microsomal CLint at 1 µM: read-out: CLint(mic)
# Method: (§5) 1) Preparation of working solutions of test samples: The test samples were diluted with acetonitrile to 100 M.
# (§6) 2) Preparation of a working solution of liver microsomes: liver microsomes were diluted with 100 mM phosphate-buffered saline to 0.56 mg/mL.
# (§7) 3) Preparation of a working solution of reduced nicotinamide adenine dinucleotide (NADPH): A proper amount of NADPH was weighed out and diluted with phosphate-buffered saline to 20 mM, and an equal volume of a 60 mM MgCl2 solution was added.
# (§8) 4) Preparation of a stop solution: Tolbutamide was diluted with acetonitrile to 20 ng/mL, serving as a stop solution containing an internal standard.
# (§9) 1) Incubation anti-adsorption EP tubes were prepared and labeled with species, test/control sample, time points (0, 5, 10, 20, 30, 60 min, Blank60, and NCF60), etc.
# (§10) 2) 2 L of test or control sample working solution, diluted with acetonitrile to 100 M, and 178 L of liver microsome working solution were added to each tube. For the Blank60 tube, 2 L of acetonitrile was added instead of a test sample. The tubes were pre-incubated in a 37° C. water bath for about 10 min, with each sample tested in triplicate.
# (§11) 3) After the pre-incubation was complete, 20 L of NADPH working solution was added to each tube except for the 0 min and NCF60 tubes to start reactions, and 20 L of phosphate-buffered saline (containing 30 mM MgCl2) was added to the NCF60 tube. In the incubation system, the final concentrations of the test and control samples were 1 M, the final concentration of liver microsomes was 0.5 mg/mL, the final concentration of NADPH was 1 mM, and the final concentration of MgCl2 was 3 mM.
# (§12) 4) For the 0 min sample, 600 L of stop solution was added before adding the NADPH working solution. After each sample was incubated for its respective time, 600 L of stop solution was added to stop the reaction.
# (§13) 5) After the reaction was stopped, each sample was vortexed for 30 s and then centrifuged at 13,500 rpm for 10 min. 100 L of the supernatant was transferred to an EP tube, and 100 L Milli-Q water was added. The mixture was well mixed by vortexing and analyzed by LC-MS/MS.
# (§14) 6) Testosterone and dextromethorphan were used as positive control samples under the same conditions to assess the stability and reliability of the system.
# (§15) Parameters of the test samples, including their half-lives, intrinsic clearance rates in liver microsomes, and hepatic intrinsic clearance rates, were calculated based on the percentage of test sample remaining.
# [3] = In vitro liver microsomal stability assay, rat; type: in vitro ADME; settings: for Remaining amount % at 60 min: Rat liver microsomes 0.5 mg/mL, NADPH; for microsomal CLint at 1 µM: read-out: CLint(mic)
# Method: as §5, §6, §7, §8, §9, §10, §11, §12, §13, §14, §15
# [4] = target: T2, α4β3δ GABA receptors (α4β3δ-HEK-FlpIn-TRex stable cell strain) (Homo sapiens, UniProt P28472+P48169); test: Whole-cell patch clamp, extrasynaptic functional activity (positive allosteric regulation of GABA-induced current); type: cell-based; settings: patch clamp -60 mV, GABA at EC10-20, α4β3δ-HEK-FlpIn-TRex cells
# T2 construct: expressed in transfected cells
# T2 sequence (P48169 36-554): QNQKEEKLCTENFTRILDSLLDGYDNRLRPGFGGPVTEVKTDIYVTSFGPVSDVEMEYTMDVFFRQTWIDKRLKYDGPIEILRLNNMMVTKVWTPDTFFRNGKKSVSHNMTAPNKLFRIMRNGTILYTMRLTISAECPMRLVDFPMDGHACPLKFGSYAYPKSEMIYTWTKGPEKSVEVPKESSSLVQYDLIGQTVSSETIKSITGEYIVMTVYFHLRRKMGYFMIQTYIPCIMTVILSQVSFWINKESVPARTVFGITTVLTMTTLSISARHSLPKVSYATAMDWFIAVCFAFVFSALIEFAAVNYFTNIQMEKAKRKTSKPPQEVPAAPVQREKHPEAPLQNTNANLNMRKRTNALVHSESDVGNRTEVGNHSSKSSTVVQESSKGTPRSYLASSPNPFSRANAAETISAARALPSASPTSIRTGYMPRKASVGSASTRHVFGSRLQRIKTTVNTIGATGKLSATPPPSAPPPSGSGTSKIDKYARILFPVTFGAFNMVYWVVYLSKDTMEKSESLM
# T2 sequence (P28472 26-473): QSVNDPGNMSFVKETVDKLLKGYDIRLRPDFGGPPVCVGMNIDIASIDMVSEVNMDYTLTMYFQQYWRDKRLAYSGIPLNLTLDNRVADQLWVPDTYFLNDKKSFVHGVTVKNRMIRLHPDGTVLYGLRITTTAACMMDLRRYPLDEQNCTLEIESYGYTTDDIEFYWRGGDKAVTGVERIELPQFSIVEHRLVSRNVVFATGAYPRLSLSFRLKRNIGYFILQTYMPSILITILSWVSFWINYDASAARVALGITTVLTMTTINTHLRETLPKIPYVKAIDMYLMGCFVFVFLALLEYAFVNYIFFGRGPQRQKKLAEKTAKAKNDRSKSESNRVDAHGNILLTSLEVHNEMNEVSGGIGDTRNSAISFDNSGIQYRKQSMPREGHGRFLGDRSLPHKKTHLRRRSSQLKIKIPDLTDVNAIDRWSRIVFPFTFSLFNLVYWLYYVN
# T2 sequence (O14764 25-452 partner): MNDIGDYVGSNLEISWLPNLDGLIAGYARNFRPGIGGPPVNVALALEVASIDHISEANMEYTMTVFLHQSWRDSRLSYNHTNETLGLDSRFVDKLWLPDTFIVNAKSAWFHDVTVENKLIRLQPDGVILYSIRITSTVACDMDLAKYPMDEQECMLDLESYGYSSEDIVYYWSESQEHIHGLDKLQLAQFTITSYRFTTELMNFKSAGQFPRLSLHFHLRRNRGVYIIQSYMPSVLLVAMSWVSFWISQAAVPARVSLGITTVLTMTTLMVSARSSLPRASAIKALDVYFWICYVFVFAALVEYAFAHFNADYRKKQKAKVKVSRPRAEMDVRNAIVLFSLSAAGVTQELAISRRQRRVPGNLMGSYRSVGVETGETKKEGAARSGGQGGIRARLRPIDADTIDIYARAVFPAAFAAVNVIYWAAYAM
# Method: as §1, §2, §3, §4
SMILES,EC50 [1] [µM],Emax [1] [%],CLint scaled at 1 µM ([2]; Human liver microsomes) [mL/min/kg],half-life at 1 µM ([2]; Human liver microsomes) [min],Remaining amount % at 60 min [2] [%],microsomal CLint at 1 µM ([2]; Human liver microsomes) [µL/min/mg],CLint scaled at 1 µM ([3]; Rat liver microsomes) [mL/min/kg],half-life at 1 µM ([3]; Rat liver microsomes) [min],Remaining amount % at 60 min [3] [%],microsomal CLint at 1 µM ([3]; Rat liver microsomes) [µL/min/mg],EC50 [4] [µM],Emax [4] [%],T1/2 ([2]; Human liver microsomes) [min],T1/2 ([3]; Rat liver microsomes) [min]
C[C@@]1(O)CC[C@H]2[C@H](CC[C@@H]3[C@@H]2CC[C@]2(C)[C@@H](C(=O)Cn4cnn(-c5cccc(F)c5)c4=O)CC[C@@H]32)C1 [Compound 1],0.056,566,3.97,330,89.0,4.2,43.6,57.3,44.5,24.2,0.01,440,,
C[C@@]1(O)CC[C@H]2[C@H](CC[C@@H]3[C@@H]2CC[C@]2(C)[C@@H](C(=O)Cn4cnn(-c5cccc(F)n5)c4=O)CC[C@@H]32)C1 [Compound 20],0.368,724,28,70.7,52.3,20,320,7.8,8.40,178,0.36,966,,
C[C@@]1(O)CC[C@H]2[C@H](CC[C@@H]3[C@@H]2CC[C@]2(C)[C@@H](C(=O)Cn4cnn(-c5ccccc5F)c4=O)CC[C@@H]32)C1 [Compound 18],0.171,710,30,41.7,38.3,33,278,9,9.7,154,0.107,541,,
C[C@@]1(O)CC[C@H]2[C@H](CC[C@@H]3[C@@H]2CC[C@]2(C)[C@@H](C(=O)Cn4cnn(-c5cc(F)cc(C#N)c5)c4=O)CC[C@@H]32)C1 [Compound 44],,518,12,102,66.67,14,27,93.6,64.82,15,,546,,
Cc1cc(-n2ncn(CC(=O)[C@H]3CC[C@H]4[C@@H]5CC[C@@H]6C[C@](C)(O)CC[C@@H]6[C@H]5CC[C@]34C)c2=O)ccn1 [Compound 36],0.119,871,53,23,15.9,59,125,29,12.2,69,0.099,745,,
C[C@@]1(O)CC[C@H]2[C@H](CC[C@@H]3[C@@H]2CC[C@]2(C)[C@@H](C(=O)Cn4cnn(-c5cc(F)cc(F)c5)c4=O)CC[C@@H]32)C1 [Compound 28],0.154,,21,58.2,61.6,24,43,57.8,48.8,24,0.035,441,,
CC(C)(C)n1ncn(CC(=O)[C@H]2CC[C@H]3[C@@H]4CC[C@@H]5C[C@](C)(O)CC[C@@H]5[C@H]4CC[C@]23C)c1=O [Compound 45],0.121,806,22,56.3,48.81,25,281,8.9,7.24,156,0.113,749,,
C[C@@]1(O)CC[C@H]2[C@H](CC[C@@H]3[C@@H]2CC[C@]2(C)[C@@H](C(=O)Cn4cnn(-c5ccccc5)c4=O)CC[C@@H]32)C1 [Compound 3],0.09,430,11,118,70.25,12,94,26.5,51.77,52,0.029,490,,
C[C@@]1(O)CC[C@H]2[C@H](CC[C@@H]3[C@@H]2CC[C@]2(C)[C@@H](C(=O)Cn4cnn(CCOC(F)(F)F)c4=O)CC[C@@H]32)C1 [Compound 43],,576,41,,25.97,45,108,,15.74,60,,889,30.7,23
C[C@@]1(O)CC[C@H]2[C@H](CC[C@@H]3[C@@H]2CC[C@]2(C)[C@@H](C(=O)Cn4cnn(-c5cc(F)ccc5F)c4=O)CC[C@@H]32)C1 [Compound 24],0.34,347,17,71.4,56.1,19,118,21.1,14.7,66,0.079,743,,
